Drawing on patent US20250250299A1, “MACROCYCLIC IMMUNOMODULATORS” (Bristol-Myers Squibb Company, priority 2022, published 2025), this text covers IC50 for 10 compounds.

Where a SMILES comes first, the peptide text is derived from it. Bridges are numbered along the chain shown (N, C = ends). [ ]: non-standard residue; d: D form. The star is where a group is joined. X1 = O=C(O)CCCCCCCCCCCCCCCCC(=O)N[C@@H](CCC(=O)NCCOCCOCCOCCOCCOCCOCCOCCOCCOCCOCCOCCn1cc(C*)nn1)C(=O)O; Bip = N[C@@H](Cc1ccc(-c2ccccc2)cc1)C(=O)O; Phe(3-Me) = Cc1cccc(C[C@H](N)C(=O)O)c1; Cha = N[C@@H](CC1CCCCC1)C(=O)O; Carboxymethyl = O=C(O)C*; Orn = NCCC[C@H](N)C(=O)O; Dab = NCC[C@H](N)C(=O)O; Dap = NC[C@H](N)C(=O)O

In the assay the target is T1, human PD-1 (Jurkat-PD-1 cells; binding of PE-labeled human PD-L1-Ig) (Homo sapiens, UniProt Q15116).
T1 construct: expressed in transfected cells; host or cells: Jurkat (Jurkat-PD-1 / Jurkat-hPD-1)
T1 sequence (Q15116 25-288): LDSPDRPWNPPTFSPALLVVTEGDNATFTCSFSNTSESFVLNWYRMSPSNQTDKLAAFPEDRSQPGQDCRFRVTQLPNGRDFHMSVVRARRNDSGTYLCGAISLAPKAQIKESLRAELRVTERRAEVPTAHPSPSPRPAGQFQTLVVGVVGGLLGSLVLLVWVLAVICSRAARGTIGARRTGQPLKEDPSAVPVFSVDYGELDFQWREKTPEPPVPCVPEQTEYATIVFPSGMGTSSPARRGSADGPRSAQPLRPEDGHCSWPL
Description: Jurkat-PD-1 Cell Binding High-Content Screening Assay. The conditions noted are these: Jurkat cell line over-expressing human PD-1; compound 2 h at 37° C., then PE-labeled PD-L1-Ig 20 nM final, 1 hour; read-out: Jurkat hPD1 PDL1 IC50. The procedure: The ability of the compounds of formula (I) to bind to PD-1 was investigated using a Jurkat-PD-1 Cell Binding High-Content Screening Assay.
Phycoerythrin (PE) was covalently linked to the Ig epitope tag of human PD-L1-Ig and fluorescently-labeled PD-L1-Ig was used for binding studies with a Jurkat cell line over-expressing human PD-1 (Jurkat-PD-1). Briefly, 8×10^3 Jurkat-hPD-1 cells were seeded into 384 well plates in 20 μl of DIVEM supplemented with 10% fetal calf serum. 100 nl of compound was added to cells followed by incubation at 37° C. for 2 h. Then, 5 μl of PE-labeled PD-L1-Ig (20 nM final), diluted in DiVEM supplemented with 10 fetal calf serum. After 1 hour incubation, cells were fixed with […] in dPBS containing 10 µg/mL Hoechst 33342 and then washed 3× in 100 μl dPB S. Data was collected and processed using a Cell Insight NXT High Content Imager and associated software.
As for `Cc1cccc(C[C@@H]2NC(=O)[C@H](CC(=O)O)NC(=O)[C@H](Cc3ccc(OCC(=O)O)cc3)NC(=O)[C@H](CN)NC(=O)CSC[C@@H](C(=O)N[C@@H](CCN)C(N)=O)NC(=O)[C@H](CCC(=O)O)NC(=O)[C@H](C(C)C)NC(=O)[C@H](CC3CCCCC3)NC(=O)[C@H](CCN)NC(=O)[C@@H](CC(C)C)NC(=O)[C@H](CCCN)NC(=O)[C@H](Cc3ccc(OCc4cn(CCOCCOCCOCCOCCOCCOCCOCCOCCOCCOCCOCCNC(=O)CC[C@H](NC(=O)CCCCCCCCCCCCCCCCC(=O)O)C(=O)O)nn4)cc3)NC(=O)[C@H](Cc3ccc(-c4ccccc4)cc3)NC(=O)[C@H](Cc3ccc(OCC(=O)O)cc3)NC2=O)c1` [Compound 1001] ({CH2CO}-[Dap]Y(Carboxymethyl)D[Phe(3-Me)]Y(Carboxymethyl)[Bip]Y(X1)[Orn][dL][Dab][Cha]VEC[Dab]-NH2; thioether N-14 (inferred)), the IC50 was 160 nM. The same measure for `Cc1cccc(C[C@@H]2NC(=O)[C@H](CC(=O)O)NC(=O)[C@H](Cc3ccc(OCC(=O)O)cc3)NC(=O)[C@H](CCCNC(=N)N)NC(=O)CSC[C@@H](C(=O)N[C@@H](CCN)C(N)=O)NC(=O)[C@H](CCC(=O)O)NC(=O)[C@H](C(C)C)NC(=O)[C@H](CC3CCCCC3)NC(=O)[C@H](CCN)NC(=O)[C@@H](CC(C)C)NC(=O)[C@H](CCCN)NC(=O)[C@H](Cc3ccc(OCc4cn(CCOCCOCCOCCOCCOCCOCCOCCOCCOCCOCCOCCNC(=O)CC[C@H](NC(=O)CCCCCCCCCCCCCCCCC(=O)O)C(=O)O)nn4)cc3)NC(=O)[C@H](Cc3ccc(-c4ccccc4)cc3)NC(=O)[C@H](Cc3ccc(OCC(=O)O)cc3)NC2=O)c1` [Compound 1002] ({CH2CO}-RY(Carboxymethyl)D[Phe(3-Me)]Y(Carboxymethyl)[Bip]Y(X1)[Orn][dL][Dab][Cha]VEC[Dab]-NH2; thioether N-14): 140 nM; for `Cc1cccc(C[C@@H]2NC(=O)[C@H](CC(=O)O)NC(=O)[C@H](Cc3ccc(OCC(=O)O)cc3)NC(=O)[C@H](CN)NC(=O)CSC[C@@H](C(=O)N[C@@H](CCN)C(N)=O)NC(=O)[C@H](CCC(=O)O)NC(=O)[C@H](C(C)C)NC(=O)[C@H](CC3CCCCC3)NC(=O)[C@H](CCN)NC(=O)[C@@H](CC(C)C)NC(=O)[C@H](CCCN)NC(=O)[C@H](Cc3ccc(OCC(=O)O)cc3)NC(=O)[C@H](Cc3ccc(-c4ccccc4)cc3)NC(=O)[C@H](Cc3ccc(OCc4cn(CCOCCOCCOCCOCCOCCOCCOCCOCCOCCOCCOCCNC(=O)CC[C@H](NC(=O)CCCCCCCCCCCCCCCCC(=O)O)C(=O)O)nn4)cc3)NC2=O)c1` [Compound 1004] ({CH2CO}-[Dap]Y(Carboxymethyl)D[Phe(3-Me)]Y(X1)[Bip]Y(Carboxymethyl)[Orn][dL][Dab][Cha]VEC[Dab]-NH2; thioether N-14): 110 nM; for `Cc1cccc(C[C@@H]2NC(=O)[C@H](CC(=O)O)NC(=O)[C@H](Cc3ccc(OCC(=O)O)cc3)NC(=O)[C@H](CCCNC(=N)N)NC(=O)CSC[C@@H](C(=O)N[C@@H](CCN)C(N)=O)NC(=O)[C@H](CCC(=O)O)NC(=O)[C@H](C(C)C)NC(=O)[C@H](CC3CCCCC3)NC(=O)[C@H](CCN)NC(=O)[C@@H](CC(C)C)NC(=O)[C@H](CCCN)NC(=O)[C@H](Cc3ccc(OCC(=O)O)cc3)NC(=O)[C@H](Cc3ccc(-c4ccccc4)cc3)NC(=O)[C@H](Cc3ccc(OCc4cn(CCOCCOCCOCCOCCOCCOCCOCCOCCOCCOCCOCCNC(=O)CC[C@H](NC(=O)CCCCCCCCCCCCCCCCC(=O)O)C(=O)O)nn4)cc3)NC2=O)c1` [Compound 1005] ({CH2CO}-RY(Carboxymethyl)D[Phe(3-Me)]Y(X1)[Bip]Y(Carboxymethyl)[Orn][dL][Dab][Cha]VEC[Dab]-NH2; thioether N-14): 39 nM. With `Cc1cccc(C[C@@H]2NC(=O)[C@H](CC(=O)O)NC(=O)[C@H](Cc3ccc(OCC(=O)O)cc3)NC(=O)[C@H](Cc3c[nH]cn3)NC(=O)CSC[C@@H](C(=O)N[C@@H](CCN)C(N)=O)NC(=O)[C@H](CCC(=O)O)NC(=O)[C@H](C(C)C)NC(=O)[C@H](CC3CCCCC3)NC(=O)[C@H](CCN)NC(=O)[C@@H](CC(C)C)NC(=O)[C@H](CCCN)NC(=O)[C@H](Cc3ccc(OCC(=O)O)cc3)NC(=O)[C@H](Cc3ccc(-c4ccccc4)cc3)NC(=O)[C@H](Cc3ccc(OCc4cn(CCOCCOCCOCCOCCOCCOCCOCCOCCOCCOCCOCCNC(=O)CC[C@H](NC(=O)CCCCCCCCCCCCCCCCC(=O)O)C(=O)O)nn4)cc3)NC2=O)c1` [Compound 1006] ({CH2CO}-HY(Carboxymethyl)D[Phe(3-Me)]Y(X1)[Bip]Y(Carboxymethyl)[Orn][dL][Dab][Cha]VEC[Dab]-NH2; thioether N-14), the IC50 was 55 nM. Consider `Cc1cccc(C[C@@H]2NC(=O)[C@H](CC(=O)O)NC(=O)[C@H](Cc3ccc(OCc4cn(CCOCCOCCOCCOCCOCCOCCOCCOCCOCCOCCOCCNC(=O)CC[C@H](NC(=O)CCCCCCCCCCCCCCCCC(=O)O)C(=O)O)nn4)cc3)NC(=O)[C@H](CCN)NC(=O)CSC[C@@H](C(=O)N[C@@H](CCN)C(N)=O)NC(=O)[C@H](CCC(=O)O)NC(=O)[C@H](C(C)C)NC(=O)[C@H](CC3CCCCC3)NC(=O)[C@H](CCN)NC(=O)[C@@H](CC(C)C)NC(=O)[C@H](CCCN)NC(=O)[C@H](Cc3ccc(OCC(=O)O)cc3)NC(=O)[C@H](Cc3ccc(-c4ccccc4)cc3)NC(=O)[C@H](Cc3ccc(OCC(=O)O)cc3)NC2=O)c1` [Compound 1007] ({CH2CO}-[Dab]Y(X1)D[Phe(3-Me)]Y(Carboxymethyl)[Bip]Y(Carboxymethyl)[Orn][dL][Dab][Cha]VEC[Dab]-NH2; thioether N-14), for which the half-inhibitory concentration (IC50) worked out at 510 nM. To `Cc1cccc(C[C@@H]2NC(=O)[C@H](CC(=O)O)NC(=O)[C@H](Cc3ccc(OCc4cn(CCOCCOCCOCCOCCOCCOCCOCCOCCOCCOCCOCCNC(=O)CC[C@H](NC(=O)CCCCCCCCCCCCCCCCC(=O)O)C(=O)O)nn4)cc3)NC(=O)[C@H](CN)NC(=O)CSC[C@@H](C(=O)N[C@@H](CCN)C(N)=O)NC(=O)[C@H](CCC(=O)O)NC(=O)[C@H](C(C)C)NC(=O)[C@H](CC3CCCCC3)NC(=O)[C@H](CCN)NC(=O)[C@@H](CC(C)C)NC(=O)[C@H](CCCN)NC(=O)[C@H](Cc3ccc(OCC(=O)O)cc3)NC(=O)[C@H](Cc3ccc(-c4ccccc4)cc3)NC(=O)[C@H](Cc3ccc(OCC(=O)O)cc3)NC2=O)c1` [Compound 1008] ({CH2CO}-[Dap]Y(X1)D[Phe(3-Me)]Y(Carboxymethyl)[Bip]Y(Carboxymethyl)[Orn][dL][Dab][Cha]VEC[Dab]-NH2; thioether N-14) belongs 710 nM; to `Cc1cccc(C[C@@H]2NC(=O)[C@H](CC(=O)O)NC(=O)[C@H](Cc3ccc(OCc4cn(CCOCCOCCOCCOCCOCCOCCOCCOCCOCCOCCOCCNC(=O)CC[C@H](NC(=O)CCCCCCCCCCCCCCCCC(=O)O)C(=O)O)nn4)cc3)NC(=O)[C@H](CCCNC(=N)N)NC(=O)CSC[C@@H](C(=O)N[C@@H](CCN)C(N)=O)NC(=O)[C@H](CCC(=O)O)NC(=O)[C@H](C(C)C)NC(=O)[C@H](CC3CCCCC3)NC(=O)[C@H](CCN)NC(=O)[C@@H](CC(C)C)NC(=O)[C@H](CCCN)NC(=O)[C@H](Cc3ccc(OCC(=O)O)cc3)NC(=O)[C@H](Cc3ccc(-c4ccccc4)cc3)NC(=O)[C@H](Cc3ccc(OCC(=O)O)cc3)NC2=O)c1` [Compound 1009] ({CH2CO}-RY(X1)D[Phe(3-Me)]Y(Carboxymethyl)[Bip]Y(Carboxymethyl)[Orn][dL][Dab][Cha]VEC[Dab]-NH2; thioether N-14), 720 nM; to `Cc1cccc(C[C@@H]2NC(=O)[C@H](CC(=O)O)NC(=O)[C@H](Cc3ccc(OCc4cn(CCOCCOCCOCCOCCOCCOCCOCCOCCOCCOCCOCCNC(=O)CC[C@H](NC(=O)CCCCCCCCCCCCCCCCC(=O)O)C(=O)O)nn4)cc3)NC(=O)[C@H](Cc3c[nH]cn3)NC(=O)CSC[C@@H](C(=O)N[C@@H](CCN)C(N)=O)NC(=O)[C@H](CCC(=O)O)NC(=O)[C@H](C(C)C)NC(=O)[C@H](CC3CCCCC3)NC(=O)[C@H](CCN)NC(=O)[C@@H](CC(C)C)NC(=O)[C@H](CCCN)NC(=O)[C@H](Cc3ccc(OCC(=O)O)cc3)NC(=O)[C@H](Cc3ccc(-c4ccccc4)cc3)NC(=O)[C@H](Cc3ccc(OCC(=O)O)cc3)NC2=O)c1` [Compound 1010] ({CH2CO}-HY(X1)D[Phe(3-Me)]Y(Carboxymethyl)[Bip]Y(Carboxymethyl)[Orn][dL][Dab][Cha]VEC[Dab]-NH2; thioether N-14), 630 nM. Turning to `Cc1cccc(C[C@@H]2NC(=O)[C@H](CC(=O)O)NC(=O)[C@H](Cc3ccc(OCC(=O)O)cc3)NC(=O)[C@H](Cc3ccc(OCc4cn(CCOCCOCCOCCOCCOCCOCCOCCOCCOCCOCCOCCNC(=O)CC[C@H](NC(=O)CCCCCCCCCCCCCCCCC(=O)O)C(=O)O)nn4)cc3)NC(=O)CSC[C@@H](C(=O)N[C@@H](CCN)C(N)=O)NC(=O)[C@H](CCC(=O)O)NC(=O)[C@H](C(C)C)NC(=O)[C@H](CC3CCCCC3)NC(=O)[C@H](CCN)NC(=O)[C@@H](CC(C)C)NC(=O)[C@H](CCCN)NC(=O)[C@H](Cc3ccc(OCC(=O)O)cc3)NC(=O)[C@H](Cc3ccc(-c4ccccc4)cc3)NC(=O)[C@H](Cc3ccc(OCC(=O)O)cc3)NC2=O)c1` [Compound 1011] ({CH2CO}-Y(X1)Y(Carboxymethyl)D[Phe(3-Me)]Y(Carboxymethyl)[Bip]Y(Carboxymethyl)[Orn][dL][Dab][Cha]VEC[Dab]-NH2; thioether N-14), the half-maximal inhibitory concentration (IC50) was determined as 340 nM.
